Source: patent US7629341B2, “Human ADAM-10 inhibitors” (Symphony Evolution, Inc., priority 2003, dated 2009)
pIC50: −log10 of the molar value.

Assays:
ADAM-10 = molecular target: T1, ADAM-10 (UniProt O14672); test: ADAM-10 enzyme assay, cleavage of a fluorogenic 10-residue peptide; format: biochemical, mouse or human (mADAM-10 or hADAM-10); conditions: in vitro;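 further: mouse or human ADAM-10 at 5 nM active enzyme, pH 8.0 HEPES buffer with CaCl2 and NP-40, compounds titrated 100 µM down to 0.5 nM, fluorescence read after 16 h at room temperature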
T1 sequence (O14672 1-748): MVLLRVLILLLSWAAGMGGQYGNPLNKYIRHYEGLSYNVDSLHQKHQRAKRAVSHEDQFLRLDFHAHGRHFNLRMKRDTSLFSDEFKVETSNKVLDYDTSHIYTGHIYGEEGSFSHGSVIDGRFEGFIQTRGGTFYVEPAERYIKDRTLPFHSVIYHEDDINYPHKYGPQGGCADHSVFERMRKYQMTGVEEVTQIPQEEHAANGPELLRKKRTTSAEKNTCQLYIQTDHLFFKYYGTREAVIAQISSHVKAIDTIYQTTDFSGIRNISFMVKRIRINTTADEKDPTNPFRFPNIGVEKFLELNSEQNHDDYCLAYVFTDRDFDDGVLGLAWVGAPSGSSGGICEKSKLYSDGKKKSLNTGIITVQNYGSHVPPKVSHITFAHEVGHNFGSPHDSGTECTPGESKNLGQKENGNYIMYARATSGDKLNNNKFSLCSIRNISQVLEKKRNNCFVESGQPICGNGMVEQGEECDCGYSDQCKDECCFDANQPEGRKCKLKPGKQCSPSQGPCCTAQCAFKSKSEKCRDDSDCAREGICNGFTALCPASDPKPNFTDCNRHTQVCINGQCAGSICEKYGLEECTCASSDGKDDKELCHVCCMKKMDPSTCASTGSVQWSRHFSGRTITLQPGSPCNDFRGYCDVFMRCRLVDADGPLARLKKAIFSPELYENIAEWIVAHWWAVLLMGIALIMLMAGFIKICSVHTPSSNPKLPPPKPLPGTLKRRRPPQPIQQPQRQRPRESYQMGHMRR
Description: mADAM-10 or hADAM-10 activity was measured as the ability to cleave a 10-residue peptide (DABCYL-Leu-Leu-Ala-Gln-Lys-*-LeuArg-Ser-Ser-Arg-EDANS). […] Enzyme was diluted to a final active concentration of 5 nM in Buffer A (50 mM HEPES 8.0, 100 mM NaCl, 1 mM CaCl2 and 0.01% NP-40). Serial dilutions for compounds were performed ranging from 100 μM to 0.5 nM using a Beckman Biomek 2000 in polypropylene plates (Greiner). […] This reaction was incubated for 16 hr at RT and fluorescence was read using identical conditions.

[1] = molecular target: TACE (TNF-alpha converting enzyme, ADAM-17) (Homo sapiens, UniProt P78536); test: In vitro metalloprotease inhibition, TACE; format: biochemical
TACE (TNF-alpha converting enzyme, ADAM-17), sequence (P78536 215-824): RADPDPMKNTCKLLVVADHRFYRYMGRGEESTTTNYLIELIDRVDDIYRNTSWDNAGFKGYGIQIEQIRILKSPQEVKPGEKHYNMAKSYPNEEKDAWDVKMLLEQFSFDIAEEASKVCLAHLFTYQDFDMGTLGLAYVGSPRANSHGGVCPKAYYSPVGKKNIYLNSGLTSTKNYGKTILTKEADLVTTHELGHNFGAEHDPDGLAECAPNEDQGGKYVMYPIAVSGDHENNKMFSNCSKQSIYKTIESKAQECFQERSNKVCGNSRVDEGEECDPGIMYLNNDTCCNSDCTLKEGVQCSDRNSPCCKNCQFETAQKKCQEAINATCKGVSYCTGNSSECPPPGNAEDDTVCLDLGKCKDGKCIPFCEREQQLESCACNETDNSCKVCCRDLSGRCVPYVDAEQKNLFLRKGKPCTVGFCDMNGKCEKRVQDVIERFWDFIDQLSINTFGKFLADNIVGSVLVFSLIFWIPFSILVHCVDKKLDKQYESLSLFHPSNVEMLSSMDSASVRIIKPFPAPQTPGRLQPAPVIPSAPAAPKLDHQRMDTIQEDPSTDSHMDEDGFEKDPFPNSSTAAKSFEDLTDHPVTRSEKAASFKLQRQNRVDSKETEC
Description: (§1) Blank cells indicate lack of data only.

[2] = molecular target: T2, MMP-1 (Fibroblast collagenase) (Homo sapiens, UniProt P03956); test: In vitro metalloprotease inhibition, MMP-1; format: biochemical
T2 sequence (P03956 100-469): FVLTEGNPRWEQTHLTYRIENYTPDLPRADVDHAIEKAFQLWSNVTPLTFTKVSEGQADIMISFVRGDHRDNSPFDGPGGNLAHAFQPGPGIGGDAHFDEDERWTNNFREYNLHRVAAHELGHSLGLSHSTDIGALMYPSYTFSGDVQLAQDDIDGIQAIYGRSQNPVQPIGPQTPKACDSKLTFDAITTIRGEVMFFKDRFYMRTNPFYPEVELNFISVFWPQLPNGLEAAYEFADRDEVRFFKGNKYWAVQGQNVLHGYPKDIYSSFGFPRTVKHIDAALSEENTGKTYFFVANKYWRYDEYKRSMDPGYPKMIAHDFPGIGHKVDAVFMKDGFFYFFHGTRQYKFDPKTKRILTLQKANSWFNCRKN
Description: as §1

[3] = molecular target: T3, MMP-2 (72 kDa gelatinase, gelatinase A) (Homo sapiens, UniProt P08253); test: In vitro metalloprotease inhibition, MMP-2; format: biochemical
T3 sequence (P08253 110-660): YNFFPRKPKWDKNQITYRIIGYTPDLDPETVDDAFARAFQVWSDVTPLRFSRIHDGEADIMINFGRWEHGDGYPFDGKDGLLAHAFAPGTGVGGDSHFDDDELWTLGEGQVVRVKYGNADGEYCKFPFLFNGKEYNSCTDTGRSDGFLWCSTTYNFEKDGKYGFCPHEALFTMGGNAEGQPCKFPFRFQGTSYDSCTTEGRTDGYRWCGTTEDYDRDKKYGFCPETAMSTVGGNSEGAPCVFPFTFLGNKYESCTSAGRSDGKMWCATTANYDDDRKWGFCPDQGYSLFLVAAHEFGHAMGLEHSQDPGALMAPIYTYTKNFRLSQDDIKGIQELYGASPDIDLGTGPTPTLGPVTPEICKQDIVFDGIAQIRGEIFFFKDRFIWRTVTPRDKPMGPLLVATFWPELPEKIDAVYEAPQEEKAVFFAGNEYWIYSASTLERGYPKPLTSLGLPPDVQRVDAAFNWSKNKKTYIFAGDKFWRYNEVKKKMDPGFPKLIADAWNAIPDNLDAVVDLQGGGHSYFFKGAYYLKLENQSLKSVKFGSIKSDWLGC

MMP-3 (Stromelysin-1) = MMP-3 (Stromelysin-1) (Homo sapiens, UniProt P08254); test: In vitro metalloprotease inhibition, MMP-3; format: biochemical
MMP-3 (Stromelysin-1), sequence (P08254 100-477, species assumed): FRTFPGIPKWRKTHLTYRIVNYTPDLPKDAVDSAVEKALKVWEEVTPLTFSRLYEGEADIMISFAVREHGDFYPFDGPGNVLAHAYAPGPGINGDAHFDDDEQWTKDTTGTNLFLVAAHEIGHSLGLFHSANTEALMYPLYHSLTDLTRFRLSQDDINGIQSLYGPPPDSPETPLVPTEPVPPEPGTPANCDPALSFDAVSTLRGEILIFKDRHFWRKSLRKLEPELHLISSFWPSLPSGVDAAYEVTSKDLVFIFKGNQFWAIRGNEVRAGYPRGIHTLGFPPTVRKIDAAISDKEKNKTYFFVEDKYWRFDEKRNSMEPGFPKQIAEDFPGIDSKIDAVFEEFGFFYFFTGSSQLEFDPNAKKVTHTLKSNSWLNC
Description: as §1

MMP-13 (collagenase-3) = MMP-13 (collagenase-3) (Homo sapiens, UniProt P45452); test: In vitro metalloprotease inhibition, MMP-13; format: biochemical
[4] = molecular target: MMP-8 (Neutrophil collagenase) (Homo sapiens, UniProt P22894); test: In vitro metalloprotease inhibition, MMP-8; format: biochemical
MMP-8 (Neutrophil collagenase), sequence (P22894 101-467, species assumed): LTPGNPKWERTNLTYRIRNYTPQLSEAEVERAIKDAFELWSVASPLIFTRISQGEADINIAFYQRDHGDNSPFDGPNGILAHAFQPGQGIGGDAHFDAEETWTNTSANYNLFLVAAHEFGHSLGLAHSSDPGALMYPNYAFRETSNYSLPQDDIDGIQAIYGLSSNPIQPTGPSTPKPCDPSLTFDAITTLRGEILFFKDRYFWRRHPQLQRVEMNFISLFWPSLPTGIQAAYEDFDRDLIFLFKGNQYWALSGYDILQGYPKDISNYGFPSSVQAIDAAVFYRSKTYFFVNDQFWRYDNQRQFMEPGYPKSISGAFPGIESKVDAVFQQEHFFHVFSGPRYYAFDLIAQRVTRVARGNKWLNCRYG

[5] = molecular target: MMP-9 (92 kDa gelatinase, gelatinase B) (Homo sapiens, UniProt P14780); test: In vitro metalloprotease inhibition, MMP-9; format: biochemical
MMP-9 (92 kDa gelatinase, gelatinase B), sequence (P14780 94-707, species assumed): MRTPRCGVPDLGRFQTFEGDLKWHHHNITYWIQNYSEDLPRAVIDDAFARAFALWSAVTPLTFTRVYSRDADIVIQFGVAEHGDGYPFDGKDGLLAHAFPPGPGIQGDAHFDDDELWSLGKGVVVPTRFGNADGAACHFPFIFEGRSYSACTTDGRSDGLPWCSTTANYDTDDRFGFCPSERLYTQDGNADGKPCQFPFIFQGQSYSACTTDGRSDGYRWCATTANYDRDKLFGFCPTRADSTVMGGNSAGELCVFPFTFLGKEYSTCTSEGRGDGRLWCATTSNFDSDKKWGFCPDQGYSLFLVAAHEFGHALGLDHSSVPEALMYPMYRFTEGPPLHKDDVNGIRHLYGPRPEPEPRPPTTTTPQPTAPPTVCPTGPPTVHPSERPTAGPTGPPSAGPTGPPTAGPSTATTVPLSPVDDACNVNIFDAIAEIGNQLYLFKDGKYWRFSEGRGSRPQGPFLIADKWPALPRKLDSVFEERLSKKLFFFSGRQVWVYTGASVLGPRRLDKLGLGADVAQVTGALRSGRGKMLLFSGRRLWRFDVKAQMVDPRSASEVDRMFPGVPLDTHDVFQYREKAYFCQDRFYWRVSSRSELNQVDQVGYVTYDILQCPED

Compound | pIC50 (ADAM-10) | pIC50 [1] | pIC50 [2] | pIC50 [3] | pIC50 (MMP-3 (Stromelysin-1)) | pIC50 (MMP-13 (collagenase-3)) | pIC50 [4] | pIC50 [5]
O=C(NO)[C@H]1CN(S(=O)(=O)c2cccnc2O)CCN1S(=O)(=O)c1cc(F)c(Oc2ccc(Cl)cc2)c(F)c1 [Entry 45] | > 7.30 | 6.00 to 7.30 | 4.70 to 6.00 | > 7.30 | 6.00 to 7.30 | > 7.30 | – | –
O=C(NO)[C@H]1CN(C(=O)c2cccnc2)CCN1S(=O)(=O)c1cc(F)c(Oc2ccc(Cl)cc2)c(F)c1 [Entry 59] | > 7.30 | 6.00 to 7.30 | 4.70 to 6.00 | > 7.30 | 6.00 to 7.30 | > 7.30 | – | –
COCCOC(=O)N1CCN(S(=O)(=O)c2cc(F)c(Oc3ccc(Cl)cc3)c(F)c2)[C@@H](C(=O)NO)C1 [Entry 15] | – | 6.00 to 7.30 | 4.70 to 6.00 | – | 6.00 to 7.30 | – | – | –
CN(C)CCS(=O)(=O)N1CCN(S(=O)(=O)c2cc(F)c(Oc3ccc(Cl)cc3)c(F)c2)[C@@H](C(=O)NO)C1 [Entry 54] | > 7.30 | > 7.30 | 6.00 to 7.30 | > 7.30 | > 7.30 | > 7.30 | – | –
O=C(NO)[C@H]1CN(S(=O)(=O)NC(=O)N2CCOCC2)CCN1S(=O)(=O)c1cc(F)c(Oc2ccc(Cl)cc2)c(F)c1 [Entry 38] | > 7.30 | 6.00 to 7.30 | 4.70 to 6.00 | > 7.30 | > 7.30 | > 7.30 | – | –

Now from value to compound:

pIC50 (ADAM-10) | pIC50 [1] | pIC50 [2] | pIC50 [3] | pIC50 (MMP-3 (Stromelysin-1)) | pIC50 (MMP-13 (collagenase-3)) | pIC50 [4] | pIC50 [5] | Compound
> 7.30 | 6.00 to 7.30 | 4.70 to 6.00 | > 7.30 | 6.00 to 7.30 | > 7.30 | – | – | O=C(NO)[C@H]1CN(C(=O)C(=O)N2CCOCC2)CCN1S(=O)(=O)c1cc(F)c(Oc2ccc(Cl)cc2)c(F)c1 [Entry 31]
> 7.30 | > 7.30 | 4.70 to 6.00 | > 7.30 | 6.00 to 7.30 | > 7.30 | – | – | O=C(NO)[C@H]1CN(S(=O)(=O)Cc2ccncc2)CCN1S(=O)(=O)c1cc(F)c(Oc2ccc(Cl)cc2)c(F)c1 [Entry 34]
> 7.30 | 6.00 to 7.30 | 4.70 to 6.00 | > 7.30 | > 7.30 | > 7.30 | – | – | O=C(NO)[C@H]1CN(S(=O)(=O)NC(=O)N2CCCCC2)CCN1S(=O)(=O)c1cc(F)c(Oc2ccc(Cl)cc2)c(F)c1 [Entry 37]
> 7.30 | 6.00 to 7.30 | 4.70 to 6.00 | > 7.30 | 6.00 to 7.30 | > 7.30 | > 7.30 | 6.00 to 7.30 | O=C(NO)[C@H]1CN(C(=O)N2CCOCC2)CCN1S(=O)(=O)c1cc(F)c(Oc2ccc(Cl)cc2)c(F)c1 [Entry 30]
